“Also recorded” adds a separate entry of the source.
Assays:
[1] = target: T1, human-derived PPARγ ligand-binding domain (Homo sapiens, UniProt P37231); test: PPARγ activation test (GAL4 chimera / luciferase reporter in CV-1 cells); format: cell-based; settings: for PPARγ ligand activity, ratio (%) of the activity of each synthesized product to the activity of the control substance (DMSO): control = 100
T1 construct: expressed in transfected cells; host or cells: CV-1 cells (African green monkey kidney-derived)
T1 sequence (P37231 238-503 limits assumed): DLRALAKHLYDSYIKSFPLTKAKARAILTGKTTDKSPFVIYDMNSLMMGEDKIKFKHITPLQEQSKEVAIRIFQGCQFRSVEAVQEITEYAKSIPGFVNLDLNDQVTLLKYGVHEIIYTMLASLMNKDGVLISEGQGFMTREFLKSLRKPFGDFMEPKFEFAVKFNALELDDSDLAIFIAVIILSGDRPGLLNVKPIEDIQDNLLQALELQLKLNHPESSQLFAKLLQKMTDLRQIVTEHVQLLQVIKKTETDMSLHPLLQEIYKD
Method: A measurement method for the PPAR activation test in Examples below were conducted as described below.
(1) PPARγ Activation Test
A plasmid pM-PPARγ for the expression of a chimeric protein composed of a human-derived PPARγ ligand-binding domain and a DNA-binding domain of a yeast-derived GAL4 transcription factor, and a plasmid p4×UASg-tk-luc containing a Cypridina-derived luciferase structural gene linked downstream of a GAL4 responsive sequence designed such that its expression was controlled by this chimeric protein, were prepared. Also, a Renilla-derived luciferase expression plasmid pRL-CMV having a viral expression promoter for constitutive intracellular expression was prepared as a plasmid for the correction of transfection efficiency. On the other hand, DMEM containing 10% FBS was used as a medium for CV-1 cells (African green monkey kidney-derived). The CV-1 cells were seeded at 4.5×10^5 cells over a 100-mm Petri dish and cultured in an incubator at 37° C. in a 5% CO2 environment.
(1-2) Transformation of CV-1 Cell
The CV-1 cells thus cultured for 24 hours were cotransfected with 2.0 μg of pM-PPARγ, 4.0 μg of p4×UASg-tk-luc, and 0.04 μg of pRL-CMV to transform the CV-1 cells. The transformation was carried out by the liposome method using LipofectAMINE(R) Reagent (a product of Invitrogen Corp.). After the transformation operation, the cells were cultured at 37° C. for 3.5 hours in a 5% CO2 environment.
(1-3) Addition of Test Sample
The CV-1 cells thus incubated were recovered by trypsin treatment, and […] thereof was inoculated at a concentration of 1×10^5 cells/mL to a 96-well plate. Each test sample was diluted with DMEM containing 4% FBS to adjust its concentration to twice the final concentration, and […] thereof was added to the 96-well plate mentioned above. DMSO was used as a control substance. After the addition of the test sample or the control substance (DMSO), the mixture was incubated at 37° C. for 24 hours in a 5% CO2 environment.
(1-4) Measurement of Luciferase Activity
The luciferase activity was measured using Dual-Luciferase(R) Reporter Assay System (a product of Promega K.K.). The culture solution was removed from the 96-well plate. The cells were washed with PBS(−), and moisture was removed therefrom using a paper towel. To the cells, […] of a cell lysis solution (Passive Lysis Buffer) was added, and the 96-well plate was shaken for 15 minutes. The cell extract was transferred at […] to a 96-well luminoplate. A luminescent substrate solution was added thereto at […]. The luminescence intensity based on the luciferase was measured for a measurement time set to 10 seconds using a luminometer (Micro Lumat Plus, a product of Berthold Japan Co., Ltd.).
The PPARγ-activating effect of the test sample was evaluated on the basis of a ratio (%) relative to controls. In order to correct transfection efficiency, the measured Cypridina luciferase activity value (A) was divided by the measured Renilla luciferase activity value (B) to determine a value (A/B). The average A/B value of the control group was calculated and defined as 100. The A/B value of the test sample was calculated, and the ratio (%) of this value to the average value of the controls was used as the ability of the test sample to activate PPARγ.
Their PPARγ ligand activity was measured in the same way as in Example 7 except that the incubation time after the test sample addition was set to 48 hours. The values shown in the table below and the ordinate of the drawing depict the ratio (%) of the activity of each synthesized product to the activity of the control substance (DMSO). In Table 1 and FIG. 13, these various butenolide compounds used as test samples were each indicated by the functional group of R^2 in the formula (1).

UCP-1 gene = test: Measurement of UCP-1 gene expression level in mesenchymal cell line 10T1/2; format: cell-based; settings: 10T1/2 cells; 100 μg/mL; 24 hours; FIG. 11
From the text: Mitochondrial uncoupling proteins (or uncoupling proteins: UCPs) have the function of uncoupling oxidative phosphorylation reaction in the mitochondrial inner membrane to consume the energy as heat. Among them, UCP-1 is specifically expressed in brown fat cells that produce heat by burning fat. In recent years, particular synthetic PPARγ agonists have been reported to convert white fat cells working to store fat to brown fat cells working to burn fat (H. Ohno et al, Cell metabolism, 2012, Vol. 15, pp. 395-404).
The test was conducted as follows: a mesenchymal cell line 10T1/2 was inoculated at 1×10^4 cells/mL to a 12-well plate. The cells were cultured until confluent. Then, the fraction of peak 5 (5H4PB) was added thereto such that its final concentration was 100 μg/mL. DMSO was used as a control substance. Twenty-four hours after the sample addition, mRNA was recovered from the cells, and the mRNA level was determined. The mRNA quantification was carried out using LightCycler(R) (Roche Applied Science). The ordinate of the drawing depicts the ratio of the UCP-1 expression level for the fraction of peak 5 to the UCP-1 expression level for the control substance (DMSO). […] The increased expression level of UCP-1 indicates enhanced heat production from lipids.

[2] = tested on: liver (hepatocytes) of C57BL/6J mice fed with a high-fat diet; test: Influence of administration on liver tissue (histopathological examination); format: in vivo, mouse; settings: 12 weeks, high-fat diet
From the text: In Example 13, the liver was collected during the collection of fat tissues from each individual and histopathologically examined. The findings from the histopathological examination were as described below.
For the individuals of the normal group, the deposition of fat droplets was not observed in the hepatocytes, whereas only the very mild infiltration of inflammatory cells was observed.

[3] = test sample concentration 0.032 μg/mL, incubation 48 hours
[4] = test sample concentration 0.08 μg/mL, incubation 48 hours
[5] = test sample concentration 0.16 μg/mL, incubation 48 hours
[6] = test sample concentration 0.4 μg/mL, incubation 48 hours
[7] = test sample concentration 0.8 μg/mL, incubation 48 hours, * = twice or more vs control, p<0.05
[8] = test sample concentration 2 μg/mL, incubation 48 hours, * = twice or more vs control, p<0.05
[9] = test sample concentration 4 μg/mL, incubation 48 hours, * = twice or more vs control, p<0.05

PPARγ ligand activity, ratio (%) of the activity of each synthesized product to the activity of the control substance (DMSO) [1, 3] [%] | PPARγ ligand activity, ratio (%) of the activity of each synthesized product to the activity of the control substance (DMSO) [1, 4] [%] | PPARγ ligand activity, ratio (%) of the activity of each synthesized product to the activity of the control substance (DMSO) [1, 5] [%] | PPARγ ligand activity, ratio (%) of the activity of each synthesized product to the activity of the control substance (DMSO) [1, 6] [%] | PPARγ ligand activity, ratio (%) of the activity of each synthesized product to the activity of the control substance (DMSO) [1, 7] | PPARγ ligand activity, ratio (%) of the activity of each synthesized product to the activity of the control substance (DMSO) [1, 8] | PPARγ ligand activity, ratio (%) of the activity of each synthesized product to the activity of the control substance (DMSO) [1, 9] | PPARγ ligand activity, ratio (%) of the activity of each synthesized product to the activity of the control substance (DMSO) ([1]; test sample concentration 10 μg/mL, incubation 48 hours, * = twice or more vs control, p<0.05) | PPARγ ligand activity, ratio (%) of the activity of each synthesized product to the activity of the control substance (DMSO) ([1]; test sample concentration 20 μg/mL, incubation 48 hours, * = twice or more vs control, p<0.05) | deposition of fat droplets in the hepatocytes ([2]; 0.037 μg/kg/day) | deposition of fat droplets in the hepatocytes ([2]; 10 mg/kg/day) | swelling of hepatocytes ([2]; 10 mg/kg/day) | Compound | PPARγ ligand activity of butenolide compounds (in words) ([1]; Example 8, incubation 48 hours, Table 1 and FIG. 13, listed as 5-hydroxy-4-(4-methylphenyl)butenolide) | expression level of UCP-1 (mRNA) relative to control substance (DMSO) (UCP-1 gene) | PPARγ ligand activity of the fraction of peak 5 ([1]; 50 μg/mL and 100 μg/mL, FIG. 9) | PPARγ ligand activity of peak fractions ([1]; final concentration 100 μg/mL, FIG. 7)
 |  |  |  |  |  |  |  |  |  |  |  | O=C1C=C(c2ccccc2)C(O)O1 (single isomer, unassigned) [5H4PB, 5-hydroxy-4-phenylbutenolide] |  | effect of elevating the expression level of UCP-1 | elevate in a concentration-dependent manner | distinct PPARγ ligand activity
120 | 220 | 110 | 130 | 170% | 310* % | 360* % |  |  |  |  |  | O=C1C=C(Cc2ccccc2)C(O)O1 (stereo not drawn) [Benzyl, 5-hydroxy-4-benzylbutenolide] |  |  |  | 
130 | 110 | 120 | 130 | 140% | 130% | 240* % | 340* % | 520* % |  |  |  | Cc1ccc(CC2=CC(=O)OC2O)cc1 (stereo not drawn) [Methylbenzyl, 5-hydroxy-4-(4-methylbenzyl)butenolide] |  |  |  | 
 |  |  |  |  |  |  |  |  | very mild to mild depositions | moderate deposition | mildly swollen | CN(CCOc1ccc(CC2SC(=O)NC2=O)cc1)c1ccccn1 (stereo not drawn) [rosiglitazone, reference compound] |  |  |  | 

Compound | PPARγ ligand activity, ratio (%) of the activity of each synthesized product to the activity of the control substance (DMSO) [1, 3] [%] | PPARγ ligand activity, ratio (%) of the activity of each synthesized product to the activity of the control substance (DMSO) [1, 4] [%] | PPARγ ligand activity, ratio (%) of the activity of each synthesized product to the activity of the control substance (DMSO) [1, 5] [%] | PPARγ ligand activity, ratio (%) of the activity of each synthesized product to the activity of the control substance (DMSO) [1, 6] [%] | PPARγ ligand activity, ratio (%) of the activity of each synthesized product to the activity of the control substance (DMSO) [1, 7] | PPARγ ligand activity, ratio (%) of the activity of each synthesized product to the activity of the control substance (DMSO) [1, 8] | PPARγ ligand activity, ratio (%) of the activity of each synthesized product to the activity of the control substance (DMSO) [1, 9] | PPARγ ligand activity, ratio (%) of the activity of each synthesized product to the activity of the control substance (DMSO) ([1]; test sample concentration 10 μg/mL, incubation 48 hours, * = twice or more vs control, p<0.05) | PPARγ ligand activity, ratio (%) of the activity of each synthesized product to the activity of the control substance (DMSO) ([1]; test sample concentration 20 μg/mL, incubation 48 hours, * = twice or more vs control, p<0.05) | deposition of fat droplets in the hepatocytes ([2]; 0.037 μg/kg/day) | deposition of fat droplets in the hepatocytes ([2]; 10 mg/kg/day) | swelling of hepatocytes ([2]; 10 mg/kg/day) | PPARγ ligand activity of butenolide compounds (in words) ([1]; Example 8, incubation 48 hours, Table 1 and FIG. 13, listed as 5-hydroxy-4-(4-methylphenyl)butenolide) | expression level of UCP-1 (mRNA) relative to control substance (DMSO) (UCP-1 gene) | PPARγ ligand activity of the fraction of peak 5 ([1]; 50 μg/mL and 100 μg/mL, FIG. 9) | PPARγ ligand activity of peak fractions ([1]; final concentration 100 μg/mL, FIG. 7)
Cc1ccc(C2=CC(=O)OC2O)cc1 (stereo not drawn) | 170 | 110 | 120 | 180 | 260* % | 560* % | 710* % |  |  |  |  |  | high activity in a low concentration range; also recorded: highest activity |  |  | 

— patent US9943501B2 (KOJUN JAPAN CO., LTD., priority 2014, dated 2018)
